Experimental data as given in publication PMC7395068, “The evolution of strategies to minimise the risk of human drug-induced liver injury (DILI) in drug discovery and development” (Archives of Toxicology, 2020).
Where two headings read alike, the source gives them in different places. One block for each molecule: values may come before it.

Assays:
[1] = Plasma free fraction (fu) and unbound Cmax (Cmax,u); assay type: in vitro ADME, human; details: unbound plasma Cmax
human hepatocytes = details: cited from earlier work
[2] = read-out: Human plasma Cmax; total plasma Cmax.tot, median of 9 literature references; cited from earlier work
[3] = plasma free fraction; cited from earlier work
[4] = system: isolated mouse liver mitochondria; details: In vitro Assay; ref Porceddu 2012; cited from earlier work
hLiMTs [5] = assay: Combined HCI (HCS) and cellular ATP 3D assay in hLiMTs; details: for hLiMTs <25x Avg Cmax ATP / hLiMTs <100x Avg Cmaxu ATP: ATP endpoint; for hLiMTs <25x Avg Cmax ATP / hLiMTs <25x Avg Cmax HCS / hLiMTs <25x Avg Cmax All: cut-off <25x Avg Cmax; for hLiMTs <100x Avg Cmaxu ATP / hLiMTs <100x Avg Cmaxu HCS / hLiMTs <100x Avg Cmaxu All: cut-off <100x Avg Cmaxu; for hLiMTs <25x Avg Cmax HCS / hLiMTs <100x Avg Cmaxu HCS: HCS endpoints; for hLiMTs <25x Avg Cmax All: all endpoints (ATP and HCS); for hLiMTs Cmax max All / hLiMTs Cmax min All / hLiMTs <10 uM All / hLiMTs <100x Avg Cmaxu All: all endpoints; for hLiMTs Cmax max All: Cmax max used; for hLiMTs Cmax min All: Cmax min used; for hLiMTs <10 uM All: cut-off <10 uM
HepaRG spheroids = assay: Combined HCI (HCS) and cellular ATP 3D assay in HepaRG spheroids; details: for HepaRG <25x Avg Cmax ATP / HepaRG <100x Avg Cmaxu ATP: ATP endpoint; for HepaRG <25x Avg Cmax ATP / HepaRG <25x Avg Cmax HCS / HepaRG <25x Avg Cmax All: cut-off <25x Avg Cmax; for HepaRG <100x Avg Cmaxu ATP / HepaRG <100x Avg Cmaxu HCS / HepaRG <100x Avg Cmaxu All: cut-off <100x Avg Cmaxu; for HepaRG <25x Avg Cmax HCS / HepaRG <100x Avg Cmaxu HCS: HCS endpoints; for HepaRG <25x Avg Cmax All: all endpoints (ATP and HCS); for HepaRG Cmax max All / HepaRG Cmax min All / HepaRG <10 uM All / HepaRG <100x Avg Cmaxu All: all endpoints; for HepaRG Cmax max All: Cmax max used; for HepaRG Cmax min All: Cmax min used; for HepaRG <10 uM All: cut-off <10 uM; for AC50 / minimal effective concentration: Homo sapiens; for HepaRG <25x Avg Cmax ATP / HepaRG <100x Avg Cmaxu ATP / HepaRG <25x Avg Cmax HCS / HepaRG <100x Avg Cmaxu HCS / HepaRG <25x Avg Cmax All / HepaRG Cmax max All / HepaRG Cmax min All / HepaRG <10 uM All / HepaRG <100x Avg Cmaxu All / AC50 / minimal effective concentration: HepaRG; for DILI prediction HepaRG spheroids (HCS-MEC): Microtissue model structural based (HCI), combined HCS and ATP, MEC < 25 × Cmax.tot cut-off
[6] = cited from earlier work
[7] = system: primary human hepatocytes, NIH3T3 fibroblasts, BSEP, CYP3A4; details: cited from earlier work
HepG2 cells = details: cited from earlier work
PHH = details: cited from earlier work
hLiMTs [8] = details: cited from earlier work
[9] = cited from earlier work; remark: listed apart in the source
[10] = system: HepG2 cells, primary human hepatocytes; details: In vitro Assay; ref Garside 2014; cited from earlier work
[11] = In vitro Assay, ref Schadt 2015
[12] = In vitro Assay, ref Proctor 2017

- Human plasma Cmax,u [1]: 0.620 µM
- hLiMTs <25x Avg Cmax ATP (hLiMTs [5]): -ve
- hLiMTs <100x Avg Cmaxu ATP (hLiMTs [5]): -ve
- hLiMTs <25x Avg Cmax HCS (hLiMTs [5]): -ve
- hLiMTs <100x Avg Cmaxu HCS (hLiMTs [5]): -ve
- hLiMTs <25x Avg Cmax All (hLiMTs [5]): -ve
- hLiMTs Cmax max All (hLiMTs [5]): -ve
- hLiMTs Cmax min All (hLiMTs [5]): -ve
- hLiMTs <10 uM All (hLiMTs [5]): -ve
- hLiMTs <100x Avg Cmaxu All (hLiMTs [5]): -ve
- HepaRG <25x Avg Cmax ATP (HepaRG spheroids): +ve
- HepaRG <100x Avg Cmaxu ATP (HepaRG spheroids): -ve
- HepaRG <25x Avg Cmax HCS (HepaRG spheroids): +ve
- HepaRG <100x Avg Cmaxu HCS (HepaRG spheroids): +ve (<100x Avg Cmaxu)
- HepaRG <25x Avg Cmax All (HepaRG spheroids): +ve
- HepaRG Cmax max All (HepaRG spheroids): +ve
- HepaRG Cmax min All (HepaRG spheroids): +ve
- HepaRG <10 uM All (HepaRG spheroids): -ve
- HepaRG <100x Avg Cmaxu All (HepaRG spheroids): +ve (<100x Avg Cmaxu)
SMILES: CC[C@H]1OC(=O)[C@H](C)[C@@H](O[C@H]2C[C@@](C)(OC)[C@@H](O)[C@H](C)O2)[C@H](C)[C@@H](O[C@@H]2O[C@H](C)C[C@H](N(C)C)[C@H]2O)[C@](C)(O)C[C@@H](C)C(=O)[C@H](C)[C@@H](O)[C@]1(C)O [erythromycin]
- Structural based (HCI) (human hepatocytes; In vitro Assay, ref Xu 2008): -VE
- DILI in vitro assay prediction, Xu (2008) (human hepatocytes; Structural based (HCI), human hepatocytes, ref Xu et al. 2008): -VE
- Cmax [2]: 6.2 µM
- fu [3]: 0.100
- in vitro data EC2<=1x Cmax [4]: +VE
- DILI prediction hLiMTs (HCS-MEC) (hLiMTs [5]; Microtissue model structural based (HCI), combined HCS and ATP, MEC < 25 × Cmax.tot cut-off): -VE
- AC50 (HepaRG spheroids; read-out: ATP endpoint AC50): 214 µM
- minimal effective concentration (HepaRG spheroids; read-out: ATP endpoint MEC): 128 µM
- AC50 (HepaRG spheroids; read-out: HCS endpoint AC50): 294 µM
- minimal effective concentration (HepaRG spheroids; read-out: HCS endpoint MEC): 38.1 µM
- DILI prediction HepaRG spheroids (HCS-MEC) (HepaRG spheroids): +VE (MEC < 25 × Cmax.tot cut-off)

- Human plasma Cmax,u [1]: 7.743 µM
- hLiMTs <25x Avg Cmax ATP (hLiMTs [5]): -ve
- hLiMTs <100x Avg Cmaxu ATP (hLiMTs [5]): +ve (<100x Avg Cmaxu)
- hLiMTs <25x Avg Cmax HCS (hLiMTs [5]): +ve
- hLiMTs <100x Avg Cmaxu HCS (hLiMTs [5]): +ve (<100x Avg Cmaxu)
- hLiMTs <25x Avg Cmax All (hLiMTs [5]): +ve
- hLiMTs Cmax max All (hLiMTs [5]): +ve
- hLiMTs Cmax min All (hLiMTs [5]): +ve
- hLiMTs <10 uM All (hLiMTs [5]): -ve
- hLiMTs <100x Avg Cmaxu All (hLiMTs [5]): +ve (<100x Avg Cmaxu)
- HepaRG <25x Avg Cmax ATP (HepaRG spheroids): -ve
- HepaRG <100x Avg Cmaxu ATP (HepaRG spheroids): -ve
- HepaRG <25x Avg Cmax HCS (HepaRG spheroids): -ve
- HepaRG <100x Avg Cmaxu HCS (HepaRG spheroids): -ve
- HepaRG <25x Avg Cmax All (HepaRG spheroids): -ve
- HepaRG Cmax max All (HepaRG spheroids): -ve
- HepaRG Cmax min All (HepaRG spheroids): -ve
- HepaRG <10 uM All (HepaRG spheroids): -ve
- HepaRG <100x Avg Cmaxu All (HepaRG spheroids): -ve
SMILES: CN(C)C(=N)N=C(N)N [metformin]
- DILI severity category (Chen et al. [2016]) ([6]; LTKB DILIrank category, ref Chen et al. 2016): Less
- DILI severity category (Chen 2016) ([6]; human DILI classification, LTKB DILIrank, ref Chen et al. 2016): Less
- DILI severity category ([6]; human DILI severity, ref Chen et al.): Less
- DILI +VE (5-8), DILI -VE (-4) ([6]; ref Chen 2016): +VE
- DILI severity category ([6]; ref Chen 2016): vLess-DILI-Concern
- DILI in vitro assay prediction, Schadt (2015) ([7]; BSEP & Metabolism based, ref Schadt et al. 2015): -VE
- Cellular toxicity (3T3 cells) [7, 11]: -VE
- Combined Assay [7, 11]: -VE
- GSH adduct HML [7, 11]: -VE
- Hepatocyte cellular toxicity [7, 11]: -VE
- MitoTox 3T3 [7, 11]: -VE
- TDI CYP3A4 [7, 11]: -VE
- hBSEP inhibition [7, 11]: -VE
- Structural based (HCI) (HepG2 cells; In vitro Assay, ref O'Brien 2006): +VE
- DILI in vitro assay prediction, O'Brien (2006) (HepG2 cells; Structural based (HCI), HepG2, ref O'Brien et al. 2006): +VE (lowest HCI endpoint IC50 (or in the absence of dose–response < 100 µM) < 30 × total human plasma exposure levels (Cmax.tot))
- PHH/100xCmax, Proctor (2017) (PHH; 2D PHH, ATP, IC50 < 100 × Cmax.tot, ref Proctor et al. 2017): -VE
- PHH/100uM, Proctor (2017) (PHH; 2D PHH, ATP, IC50 threshold 100 µM, ref Proctor et al. 2017): -VE
- PHH ATP <100uM (PHH; [12]): -VE
- hLiMTs ATP <100uM (hLiMTs [8]; [12]): -VE
- hLiMTs/100xCmax, Proctor (2017) (hLiMTs [8]; hLiMTs, ATP, IC50 < 100 × Cmax.tot, ref Proctor et al. 2017): -VE
- hLiMTs/100uM, Proctor (2017) (hLiMTs [8]; hLiMTs, ATP, IC50 threshold 100 µM, ref Proctor et al. 2017): -VE
- Cmax [2]: 7.82 µM
- fu [3]: 0.990
- Assigned DILI category ([9]; Chen et al. 2016 or literature alignment, ref Chen et al. 2016): 2
- In vivo DILI ([9]; ref Garside 2014): +VE
- In vivo DILI ([9]; ref O'Brien 2006): -VE
- In vivo DILI ([9]; ref Porceddu 2012): +VE
- In vivo DILI ([9]; ref Proctor 2017): +VE
- In vivo DILI ([9]; ref Schadt 2015): -VE
- Cluster 1-6 +VE Assay [10]: +VE
- in vitro data EC2<=1x Cmax [4]: +VE
- in vitro data EC20<=2uM [4]: -VE
- DILI prediction hLiMTs, HCI alone (hLiMTs [5]; HCS endpoints only, 25 × Cmax.tot cut-off): detection
- AC50 (hLiMTs [5]; Homo sapiens, read-out: ATP endpoint AC50): 768 µM
- minimal effective concentration (hLiMTs [5]; Homo sapiens, read-out: ATP endpoint MEC): 503 µM
- minimal effective concentration (hLiMTs [5]; Homo sapiens, read-out: HCS endpoint MEC): 28.1 µM
- DILI prediction hLiMTs, ATP alone (hLiMTs [5]; cellular ATP only, 25 × Cmax.tot cut-off): unpredicted
- DILI prediction HepaRG spheroids (HCS-MEC) (HepaRG spheroids): -VE
